Results on 4 compounds are retold here after US20250034216A1, “STEREOSELECTIVE COVALENT LIGANDS FOR ONCOGENIC AND IMMUNOLOGICAL PROTEINS” (The Scripps Research Institute, priority 2021, published 2025).

Structures are written as SMILES.

This assay deals with T1, ZBED4_C599 (Homo sapiens, UniProt O75132).
T1 construct: endogenous in cells; host or cells: 22Rv1
T1 sequence (O75132 1-1171): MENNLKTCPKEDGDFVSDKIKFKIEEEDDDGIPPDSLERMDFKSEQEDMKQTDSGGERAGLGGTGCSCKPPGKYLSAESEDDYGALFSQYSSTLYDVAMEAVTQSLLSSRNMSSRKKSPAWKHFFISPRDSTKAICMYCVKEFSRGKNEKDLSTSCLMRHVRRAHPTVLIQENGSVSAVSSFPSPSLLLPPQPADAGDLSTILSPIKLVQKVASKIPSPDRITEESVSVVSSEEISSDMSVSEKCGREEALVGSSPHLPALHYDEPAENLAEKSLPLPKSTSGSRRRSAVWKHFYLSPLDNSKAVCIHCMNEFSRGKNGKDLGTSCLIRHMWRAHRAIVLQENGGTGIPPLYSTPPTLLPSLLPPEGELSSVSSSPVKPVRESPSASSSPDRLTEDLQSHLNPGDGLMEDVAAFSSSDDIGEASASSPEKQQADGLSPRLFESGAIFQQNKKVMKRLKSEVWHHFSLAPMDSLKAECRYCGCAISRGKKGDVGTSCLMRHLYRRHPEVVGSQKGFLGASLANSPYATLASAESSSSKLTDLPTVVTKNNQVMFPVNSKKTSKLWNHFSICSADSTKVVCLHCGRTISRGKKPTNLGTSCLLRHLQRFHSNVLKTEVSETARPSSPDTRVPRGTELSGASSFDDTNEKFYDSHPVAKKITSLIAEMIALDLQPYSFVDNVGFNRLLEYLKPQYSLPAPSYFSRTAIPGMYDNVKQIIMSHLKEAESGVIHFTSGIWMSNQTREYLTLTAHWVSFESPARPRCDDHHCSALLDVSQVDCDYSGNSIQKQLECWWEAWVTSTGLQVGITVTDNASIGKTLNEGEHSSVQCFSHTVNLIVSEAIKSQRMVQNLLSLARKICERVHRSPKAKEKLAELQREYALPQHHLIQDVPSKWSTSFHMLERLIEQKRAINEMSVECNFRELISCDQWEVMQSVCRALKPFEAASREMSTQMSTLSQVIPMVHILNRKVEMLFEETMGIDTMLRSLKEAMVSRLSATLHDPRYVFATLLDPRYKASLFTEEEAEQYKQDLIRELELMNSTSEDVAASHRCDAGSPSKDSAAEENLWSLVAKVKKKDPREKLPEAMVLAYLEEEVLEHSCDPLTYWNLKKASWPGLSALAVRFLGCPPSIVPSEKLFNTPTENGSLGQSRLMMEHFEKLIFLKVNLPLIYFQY
Put plainly: IA-DTB cysteine engagement. It is filed as binding. Conditions: 22Rv1 cells, 20 μM probe, 1 h, relative to DMSO. As for the experimental part:
Sample preparation: Cells (adherent: 15 cm dishes, suspension: 2 million cells/mL) were treated with electrophilic probes in situ for indicated times and concentrations, washed with ice-cold PBS, and flash frozen in liquid nitrogen. Cell pellets were lysed by sonication (8 pulses, 40% power) in 500 μL ice-cold PBS supplemented with cOmplete protease inhibitors (1 tablet/10 mL of PBS). Whole cell lysates protein content was measured using a standard DC protein assay (Bio-Rad) and 500 μL (2 mg/mL protein content) were treated with 5 μL of 10 mM 1A-DTB (in DMSO) for 1 h at ambient temperature with occasional vortexing. Samples were methanol-chloroform precipitated with the addition of 500 μL ice-cold MeOH and 200 μL CHCl3, vortexed, and centrifuged (10 min, 10,000 g). Without disrupting the protein disk, both top and bottom layers were aspirated and the protein disk was washed with 1 mL ice-cold MeOH and centrifuged (10 min, 10,000 g). The pellets were allowed to air dry, and then re-suspended in 90 μL buffer (9 M urea, 10 mM DTT, 50 mM TEAB pH 8.5). Samples were reduced by heating at 65 C for 20 minutes and water bath sonicated as needed to resuspend the protein pellets, followed by alkylation via addition of 10 μL (500 mM) iodoacetamide and incubated at 37 C for 30 min with shaking. Samples were briefly centrifuged, and probe sonicated once more to ensure complete resuspension, and then diluted with 300 μL buffer (50 mM TEAB pH 8.5) to reach final concentration of 2 M urea. Trypsin (4 μL of 0.25 μg/μL in trypsin resuspension buffer with 25 mM CaCl2)) was added to each sample and digested at 37 C for 2 h to overnight. Digested samples were then diluted with 300 μL wash buffer (50 mM TEAB pH 8.5, 150 mM NaCl, 0.2% NP-40) containing streptavidin-agarose beads (50 μL of 50% slurry in wash buffer) and were rotated at room temperature for 2 hours. Enriched samples were pelleted by centrifugation (2000 g, 2 min) and transferred to BioSpin columns and washed (3×1 mL wash buffer, 3×1 mL PBS, 3×1 mL water). Enriched peptides were eluted by 300 μL 50% acetonitrile with 0.1% formic acid and eluate was evaporated to dryness via speedvac. IA-DTB labeled and enriched peptides were resuspended in 100 μL EPPS buffer (200 mM, pH 8.0) with 30% acetonitrile, vortexed, and water bath sonicated. Samples were TMT labeled with 3 μL of corresponding TMT tag (5 mg tag resuspended in 256 μL acetonitrile), vortexed, and incubated at room temperature for 1 hour. TMT labeling was quenched with the addition of hydroxylamine (5 μL 5% solution in H2O) and incubated for 15 minutes at room temperature. Samples were then acidified with 5 μL formic acid, combined and dried using a SpeedVac. Samples were desalted via Sep-Pak and then high pH fractionated.
Data processing: Cysteine engagement ratios (probe vs DMSO) were calculated for each peptide-spectra match by dividing each TMT reporter ion intensity by the average intensity for the channels corresponding to DMSO treatment. Peptide-spectra matches were then grouped based on protein ID and residue number (e.g., PSME1 C22), excluding peptides with summed reporter ion intensities for the DMSO channels <10,000, coefficient of variation for DMSO channels >0.5, and non-tryptic peptide sequences. TMT reporter ion intensities were normalized to the median summed signal intensity across channels.
Filtering of cysteine data: Replicates were combined based on cell line and treatment condition (probe, concentration, duration) by averaging cysteine engagement ratios across all experiments.

Consider `C=CC(=O)N1C[C@H](c2ccc(Br)cc2)[C@@H]1C(=O)Nc1cccc2cccnc12` [MY-1B, (2R,3S)-1-acryloyl-3-(4-bromophenyl)-N-(quinolin-8-yl)azetidine-2-carboxamide], for which the “% engagement ZBED4_C599” value came out at 39%.
With `C=CC(=O)N1C[C@H](c2ccc(Br)cc2)[C@H]1C(=O)Nc1cccc2cccnc12` [MY-3B, (2S,3S)-1-acryloyl-3-(4-bromophenyl)-N-(quinolin-8-yl)azetidine-2-carboxamide], the “% engagement ZBED4_C599” value came out at 83.5%.
To `C=CC(=O)N1C[C@H](c2ccc(Br)cc2)[C@H]1C(=O)Nc1cccc2cccnc12` [MY-3A, (2S,3S)-1-acryloyl-3-(4-bromophenyl)-N-(quinolin-8-yl)azetidine-2-carboxamide] belongs 21%.
To `C=CC(=O)N1C[C@@H](c2ccc(Br)cc2)[C@H]1C(=O)Nc1cccc2cccnc12` [MY-1A, (2S,3R)-1-acryloyl-3-(4-bromophenyl)-N-(quinolin-8-yl)azetidine-2-carboxamide] belongs 16%.
